Literature values, collected in US20050084547A1, “Natural product based apoptosis inducers” (PhytoMyco Research Corporation, priority 2003, published 2005).

System: human leukemia HL-60 cells
Conditions: microscopy, flow cytometry, DNA fragmentation assay

Compound: CC(=O)OC(C1CO1)C(OC(C)=O)C1CO1 (stereo not shown) [DADAG, diacetyldianhydrogalactitol]
- apoptosis induction: induced apoptosis in the HL-60 cells
